Source: patent publication US5654411A, “Process for preparing 4-deoxyerythromycin derivatives” (Abbott Laboratories, priority 1995, dated 1997)
≈ marks a conversion by molar mass, not a printed value.

Assays:
[1] = system: smooth muscle strips isolated from rabbit small intestine; assay: Induction of in vitro rabbit duodenal smooth muscle contraction; conditions: for EC50: Oryctolagus cuniculus, rabbit duodenum longitudinal muscle, 37° C., pH 7.5, read-out: pED50 (negative logarithm of the concentration producing half of the maximal contraction) (converted); for Relative Potency: relative to erythromycin A = 1.0; for Endpoint (pED50) could not be obtained, potency in words: footnote a of Table 2
Method: The compounds of the present invention were tested in vitro for their ability to induce contraction of smooth muscle strips isolated from rabbit small intestine using the following procedure:
Rabbits were sacrificed and 15 cm of duodenum was rapidly removed and placed in ice-cold modified Ringers solution (120 mM sodium chloride, 25 mM sodium bicarbonate, 4.7 mM potassium chloride, 1.25 mM calcium chloride, 1.20 mM magnesium sulfate and 5.6 mM glucose). The longitudinal muscle layer was separated from the circular muscle by blunt dissection and cut into strips of 10×20 mm. Double-folded strips were vertically suspended between two hooks in 10 mL tissue baths with a mechanical preload of 1 g. The upper hook was connected to an […] force transducer, and its displacement was recorded on a Grass polygraph. The tissue baths contained modified Ringers solution at 37° C. and were continuously gassed with 95% oxygen/5% carbon dioxide in order to maintain the pH at 7.5.
After a stabilization period of at least 60 minutes, a contractility dose-response series was performed by adding increasing final concentrations of methacholine (10^-7 M, 10^-6 M and 10^-5 M) in volumes of 100 μL. The bath solutions were replaced at least three times between doses.
After the methacholine dose-response series was completed, a test compound dose response curve was initiated by the same procedure used for the methacholine dose-response series, with at least five concentrations of test compound within the range of 10^-10 M to 10^-4 M. The tissues were washed repeatedly between doses, and the studies were completed by recording the contractile response to 10^-5 M methacholine to ascertain integrity of the muscle preparation. Contractile responses were expressed as percent of maximal contraction. The concentration of test compound which produces half of the maximal contraction (ED50 value) and the negative logarithm of the ED50 value (PED50) were estimated from the dose-response curves.

[2] = system: Pseudomonas aeruginosa K799/WT; assay: Antibacterial activity (MIC), agar dilution method; assay type: cell-based; conditions: unit assumed
Method: (§1) Compounds of the invention were next tested for antibacterial potency, such activity being regarded as an undesirable side effect if prokinetic therapy. Assays were conducted using methodology well-known in the art (the agar dilution method).

[3] = system: Staphylococcus aureus A5177; assay: Antibacterial activity (MIC), agar dilution method; assay type: cell-based; conditions: unit assumed
Method: as §1

[4] = system: Acinetobacter calcoaceticus CMX 669; assay: Antibacterial activity (MIC), agar dilution method; assay type: cell-based; conditions: unit assumed
Method: as §1

[5] = system: Pseudomonas aeruginosa A5007; assay: Antibacterial activity (MIC), agar dilution method; assay type: cell-based; conditions: unit assumed
Method: as §1

Escherichia coli DC-2 = assay: Antibacterial activity (MIC), agar dilution method; assay type: cell-based; conditions: unit assumed
Method: as §1

[6] = system: Enterobacter aerogenes ATCC 13048; assay: Antibacterial activity (MIC), agar dilution method; assay type: cell-based; conditions: unit assumed
Method: as §1

[7] = system: Staphylococcus epidermidis 3519; assay: Antibacterial activity (MIC), agar dilution method; assay type: cell-based; conditions: unit assumed
Method: as §1

[8] = system: Staphylococcus aureus NCTC 10649; assay: Antibacterial activity (MIC), agar dilution method; assay type: cell-based; conditions: unit assumed
Method: as §1

[9] = system: Streptococcus pyogenes 2548 INDUC; assay: Antibacterial activity (MIC), agar dilution method; assay type: cell-based; conditions: unit assumed
Method: as §1

Escherichia coli JUHL = assay: Antibacterial activity (MIC), agar dilution method; assay type: cell-based; conditions: unit assumed
Method: as §1

[10] = system: Micrococcus luteus ATCC 9341; assay: Antibacterial activity (MIC), agar dilution method; assay type: cell-based; conditions: unit assumed
Method: as §1

Pseudomonas cepacia 2961 = assay: Antibacterial activity (MIC), agar dilution method; assay type: cell-based; conditions: unit assumed
Method: as §1

[11] = system: Staphylococcus aureus A-5278; assay: Antibacterial activity (MIC), agar dilution method; assay type: cell-based; conditions: unit assumed
Method: as §1

[12] = system: Streptococcus pyogenes 930 CONST; assay: Antibacterial activity (MIC), agar dilution method; assay type: cell-based; conditions: unit assumed
Method: as §1

[13] = system: Streptococcus bovis A5169; assay: Antibacterial activity (MIC), agar dilution method; assay type: cell-based; conditions: unit assumed
Method: as §1

Escherichia coli H560 = assay: Antibacterial activity (MIC), agar dilution method; assay type: cell-based; conditions: unit assumed
Method: as §1

Escherichia coli KNK 437 = assay: Antibacterial activity (MIC), agar dilution method; assay type: cell-based; conditions: unit assumed
Method: as §1

[14] = system: Providencia stuartii CMX 640; assay: Antibacterial activity (MIC), agar dilution method; assay type: cell-based; conditions: unit assumed
Method: as §1

[15] = system: Staphylococcus aureus CMX 553; assay: Antibacterial activity (MIC), agar dilution method; assay type: cell-based; conditions: unit assumed
Method: as §1

[16] = system: Enterococcus faecium ATCC 8043; assay: Antibacterial activity (MIC), agar dilution method; assay type: cell-based; conditions: unit assumed
Method: as §1

[17] = system: Pseudomonas aeruginosa DPHD-5263; assay: Antibacterial activity (MIC), agar dilution method; assay type: cell-based; conditions: unit assumed
Method: as §1

[18] = system: Staphylococcus aureus ATCC 6538P; assay: Antibacterial activity (MIC), agar dilution method; assay type: cell-based; conditions: unit assumed
Method: as §1

[19] = system: Klebsiella pneumoniae ATCC 8045; assay: Antibacterial activity (MIC), agar dilution method; assay type: cell-based; conditions: unit assumed
Method: as §1

[20] = system: Streptococcus pyogenes EES61; assay: Antibacterial activity (MIC), agar dilution method; assay type: cell-based; conditions: unit assumed
Method: as §1

[21] = system: Staphylococcus aureus 642A; assay: Antibacterial activity (MIC), agar dilution method; assay type: cell-based; conditions: unit assumed
Method: as §1

[22] = system: Staphylococcus aureus 1775; assay: Antibacterial activity (MIC), agar dilution method; assay type: cell-based; conditions: unit assumed
Method: as §1

[23] = system: Pseudomonas aeruginosa DPHD-2862; assay: Antibacterial activity (MIC), agar dilution method; assay type: cell-based; conditions: unit assumed
Method: as §1

[24] = system: Pseudomonas aeruginosa BMH10; assay: Antibacterial activity (MIC), agar dilution method; assay type: cell-based; conditions: unit assumed
Method: as §1

[25] = system: Pseudomonas aeruginosa K799/61; assay: Antibacterial activity (MIC), agar dilution method; assay type: cell-based; conditions: unit assumed
Method: as §1

Escherichia coli SS = assay: Antibacterial activity (MIC), agar dilution method; assay type: cell-based; conditions: unit assumed
Method: as §1

[26] = system: Streptococcus agalactiae CMX 508; assay: Antibacterial activity (MIC), agar dilution method; assay type: cell-based; conditions: unit assumed
Method: as §1

## C#CC[N+](C)(C)[C@H]1C[C@@H](C)O[C@@H](O[C@@H]2[C@@H](C)[C@H](O[C@H]3C[C@@](C)(OC)C[C@H](C)O3)[C@@H](C)C(=O)O[C@H](CC)[C@H](C)[C@H](O)[C@@H](C)C3=C(C)C[C@@]2(C)O3)[C@@H]1O [Example 8, 8,9-anhydro-4"-deoxy-3'-N-propargylerythromycin B-6,9-hemiketal bromide]
[1]
  EC50: 50.1 nM
  Relative Potency: 28

## CC[C@H]1OC(=O)[C@H](C)[C@@H](O[C@H]2C[C@@](C)(OC)C[C@H](C)O2)[C@H](C)[C@@H](O[C@@H]2O[C@H](C)C[C@H](N(C)C)[C@H]2O)[C@@]2(C)CC(C)=C(O2)[C@H](C)[C@@H](O)[C@H]1C [Example 2, 8,9-anhydro-4"-deoxyerythromycin B-6,9-hemiketal]
[1]
  EC50: 0.0055 nM
  Relative Potency: 257,039

## C#CC[N+](C)(C)[C@H]1C[C@@H](C)O[C@@H](O[C@@H]2[C@@H](C)[C@H](O[C@H]3C[C@@](C)(OC)C[C@H](C)O3)[C@@H](C)C(=O)O[C@H](CC)[C@@](C)(O)[C@H](O)[C@@H](C)C3O[C@]2(C)C[C@@H]3C)[C@@H]1O [Example 12, 9-deoxo-4",6-dideoxy-8-epi-6,9-epoxy-3'-N -propargylerythromycin A bromide]
[1]
  EC50: 23.4 nM
  Relative Potency: 60

## CC[C@H]1OC(=O)[C@H](C)[C@@H](O[C@H]2C[C@@](C)(OC)C[C@H](C)O2)[C@H](C)[C@@H](O[C@@H]2O[C@H](C)C[C@H](NC)[C@H]2O)[C@@]2(C)CC(C)=C(O2)[C@H](C)[C@@H](O)[C@H]1C [Example 6, 8,9-anhydro-4"-deoxy-3'-N-desmethylerythromycin B-6,9-hemiketal]
[1]
  Endpoint (pED50) could not be obtained, potency in words: extremely high potency
  Relative Potency: > 8000

## CC[C@H]1OC(=O)[C@H](C)[C@@H](O[C@H]2C[C@@](C)(OC)C[C@H](C)O2)[C@H](C)[C@@H](O[C@@H]2O[C@H](C)C[C@H](N(C)CC)[C@H]2O)[C@@]2(C)CC(C)=C(O2)[C@H](C)[C@@H](O)[C@H]1C [Example 7, 8,9-anhydro-4"-deoxy-3'-N-desmethyl-3'-N-ethylerythromycin B-6,9-hemiketal]
[1]
  Endpoint (pED50) could not be obtained, potency in words: extremely high potency
  Relative Potency: > 8000
[2]
  MIC: > 100 µg/mL
[3]
  MIC: 100 µg/mL (≈ 143 µM)
[4]
  MIC: > 100 µg/mL
[5]
  MIC: > 100 µg/mL
Escherichia coli DC-2
  MIC: > 100 µg/mL
[6]
  MIC: > 100 µg/mL
[7]
  MIC: 100 µg/mL (≈ 143 µM)
[8]
  MIC: 100 µg/mL (≈ 143 µM)
[9]
  MIC: 50 µg/mL (≈ 71.6 µM)
Escherichia coli JUHL
  MIC: > 100 µg/mL
[10]
  MIC: 12.5 µg/mL (≈ 17.9 µM)
Pseudomonas cepacia 2961
  MIC: > 100 µg/mL
[11]
  MIC: > 100 µg/mL
[12]
  MIC: > 100 µg/mL
[13]
  MIC: 50 µg/mL (≈ 71.6 µM)
Escherichia coli H560
  MIC: > 100 µg/mL
Escherichia coli KNK 437
  MIC: > 100 µg/mL
[14]
  MIC: > 100 µg/mL
[15]
  MIC: > 100 µg/mL
[16]
  MIC: 50 µg/mL (≈ 71.6 µM)
[17]
  MIC: > 100 µg/mL
[18]
  MIC: 100 µg/mL (≈ 143 µM)
[19]
  MIC: > 100 µg/mL
[20]
  MIC: 50 µg/mL (≈ 71.6 µM)
[21]
  MIC: > 100 µg/mL
[22]
  MIC: > 100 µg/mL
[23]
  MIC: > 100 µg/mL
[24]
  MIC: > 100 µg/mL
[25]
  MIC: > 100 µg/mL
Escherichia coli SS
  MIC: 100 µg/mL (≈ 143 µM)
[26]
  MIC: 50 µg/mL (≈ 71.6 µM)

## CC[C@H]1OC(=O)[C@H](C)[C@@H](O[C@H]2C[C@@](C)(OC)C[C@H](C)O2)[C@H](C)[C@@H](O[C@@H]2O[C@H](C)C[C@H](N(C)C)[C@H]2O)[C@@]2(C)C[C@@H](C)C(O2)[C@H](C)[C@@H](O)[C@]1(C)O [Example 13, 9-deoxo-4",6-dideoxy-6,9-epoxyerythromycin A]
[1]
  EC50: 0.166 nM
  Relative Potency: 8,511

## C#CC[N+](C)(C)[C@H]1C[C@@H](C)O[C@@H](O[C@@H]2[C@@H](C)[C@H](O[C@H]3C[C@@](C)(OC)C[C@H](C)O3)[C@@H](C)C(=O)O[C@H](CC)[C@@](C)(O)[C@H](O)[C@@H](C)C3O[C@]2(C)C[C@H]3C)[C@@H]1O [Example 16, 9-deoxo-4",6-dideoxy-6,9-epoxy-3'-N-propargylerythromycin A bromide]
[1]
  EC50: 40.7 nM
  Relative Potency: 35
